Experimental data from patent publication US20130065883A1 (Centro Nacional de Investigaceiones Oncologicas (CNIO), priority 2010, published 2013).
Like-named read-outs stand apart in the source and are kept apart here.

Key:
[1] = Metabolic stability assay; type: in vitro ADME; conditions: percentage metabolic stability in human liver microsomes
Method: The metabolic stability assay was performed in Wuxi. 1 μM, 15 min. The kinase selectivity testing was performed in ProQinase GmbH, Germany.

panel of 24 kinases = assay: Kinase selectivity testing (percentage inhibition of 24 kinases at 1 μM); type: biochemical; conditions: proquinase; for % inhibiton at 1 uM CK1 Alpha 1: CK1 Alpha 1, 1 uM; for % inhibiton at 1 uM FGFR1: FGFR1, 1 uM; for % inhibiton at 1 uM JAK2: JAK2, 1 uM; for % inhibiton at 1 uM MEK1: MEK1, 1 uM; for % inhibiton at 1 uM RPS5 KA1: RPS5 KA1, 1 uM; for % inhibiton at 1 uM SGK1: SGK1, 1 uM; for % inhibiton at 1 uM AKT2: AKT2, 1 uM; for % inhibiton at 1 uM CHK1: CHK1, 1 uM; for % inhibiton at 1 uM PAK1: PAK1, 1 uM; for % inhibiton at 1 uM PDK1: PDK1, 1 uM
PIM-1 = target: T1, PIM-1 (Homo sapiens, UniProt P11309); assay: PIM-1 biochemical assay (ADP Hunter); conditions: read-out: PIM1 IC50;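 note: recombinant human PIM-1 carrying a C-terminal His tag, kinase activity quantified via ADP formed as the direct enzymatic product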
T1 construct: histidine tag (C); made in house
T1 sequence (P11309 whole entry): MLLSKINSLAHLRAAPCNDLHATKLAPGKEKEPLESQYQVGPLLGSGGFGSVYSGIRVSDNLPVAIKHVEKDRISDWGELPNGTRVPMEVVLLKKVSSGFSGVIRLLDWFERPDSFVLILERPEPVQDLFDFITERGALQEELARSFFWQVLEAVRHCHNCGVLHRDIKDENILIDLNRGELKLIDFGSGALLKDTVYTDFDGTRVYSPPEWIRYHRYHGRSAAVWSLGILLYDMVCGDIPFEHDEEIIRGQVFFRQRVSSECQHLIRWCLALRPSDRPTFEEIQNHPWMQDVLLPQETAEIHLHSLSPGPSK

PIM-2 = target: T2, PIM-2 (Homo sapiens, UniProt Q9P1W9); assay: PIM-2 biochemical assay (ADP Hunter); conditions: semi-quantitative class; read-out: PIM2 IC50;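 note: recombinant N-terminally His-tagged human enzyme, kinase activity quantified by detection of ADP formed as the direct reaction product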
T2 construct: histidine tag (N); made in house
T2 sequence (Q9P1W9 whole entry): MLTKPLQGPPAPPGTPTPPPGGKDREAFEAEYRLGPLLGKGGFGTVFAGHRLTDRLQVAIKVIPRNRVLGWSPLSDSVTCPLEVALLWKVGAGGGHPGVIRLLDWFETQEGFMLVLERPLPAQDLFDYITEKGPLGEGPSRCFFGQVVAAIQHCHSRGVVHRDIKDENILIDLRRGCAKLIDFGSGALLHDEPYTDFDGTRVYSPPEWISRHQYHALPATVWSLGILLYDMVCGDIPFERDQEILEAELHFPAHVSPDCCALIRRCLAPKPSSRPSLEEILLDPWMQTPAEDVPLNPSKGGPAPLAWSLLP

PIM-3 = target: T3, PIM-3 (Homo sapiens, UniProt Q86V86); assay: PIM-3 biochemical assay (ADP Hunter); conditions: read-out: PIM3 IC50;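 note: kinase activity read out as the quantity of ADP generated by the enzyme reaction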
T3 construct: purchased Millipore 14-738

FLT3 = target: T4, FLT3 (Homo sapiens, UniProt P36888); assay: FLT3 biochemical assay (ADP Hunter);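 note: FLT3 enzymatic activity quantified through the ADP produced by the kinase reaction, detected with an ADP Hunter readout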
T4 sequence (P36888 27-993): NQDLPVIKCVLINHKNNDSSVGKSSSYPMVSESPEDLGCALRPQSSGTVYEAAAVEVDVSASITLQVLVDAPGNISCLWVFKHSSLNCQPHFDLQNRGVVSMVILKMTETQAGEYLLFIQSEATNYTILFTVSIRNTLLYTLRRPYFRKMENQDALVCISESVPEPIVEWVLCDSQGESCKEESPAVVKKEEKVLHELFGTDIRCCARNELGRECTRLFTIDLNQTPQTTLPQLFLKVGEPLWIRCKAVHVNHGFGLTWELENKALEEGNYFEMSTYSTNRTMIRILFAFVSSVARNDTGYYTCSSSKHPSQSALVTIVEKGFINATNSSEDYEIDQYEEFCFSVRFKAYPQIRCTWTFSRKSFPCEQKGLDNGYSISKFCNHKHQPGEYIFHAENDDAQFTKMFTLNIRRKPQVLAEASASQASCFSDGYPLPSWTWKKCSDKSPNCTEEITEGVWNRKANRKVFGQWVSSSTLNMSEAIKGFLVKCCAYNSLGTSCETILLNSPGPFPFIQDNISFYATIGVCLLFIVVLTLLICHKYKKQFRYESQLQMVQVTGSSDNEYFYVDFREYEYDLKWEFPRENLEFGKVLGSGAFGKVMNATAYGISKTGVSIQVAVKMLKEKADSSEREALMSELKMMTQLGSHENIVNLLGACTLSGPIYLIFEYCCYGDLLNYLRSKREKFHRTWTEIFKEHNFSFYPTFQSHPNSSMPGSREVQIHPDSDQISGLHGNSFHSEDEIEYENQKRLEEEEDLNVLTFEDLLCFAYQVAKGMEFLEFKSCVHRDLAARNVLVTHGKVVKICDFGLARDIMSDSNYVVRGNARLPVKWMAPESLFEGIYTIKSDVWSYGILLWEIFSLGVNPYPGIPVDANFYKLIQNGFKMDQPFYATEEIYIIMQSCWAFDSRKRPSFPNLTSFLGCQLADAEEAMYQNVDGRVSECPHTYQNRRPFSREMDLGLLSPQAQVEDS

[2] = tested on: H1299 cells overexpressing Pim1 (H1299Pim1); assay: BAD S112 phosphorylation inhibition assay (In Cell ELISA); type: cell-based; conditions: Homo sapiens, NCI-H1299, inhibition of Bad-phosphorylation, read-out: Cell assay BAD_P H1299 PIM1
[3] = actual IC50 value in parentheses

Structure (SMILES)	Stability in HLM [1] [%]	% inhibiton at 1 uM B_RAF V600E (panel of 24 kinases) [%]	% inhibiton at 1 uM CK1 Alpha 1 (panel of 24 kinases) [%]	% inhibiton at 1 uM DYRK 1A (panel of 24 kinases) [%]	% inhibiton at 1 uM EGF_R (panel of 24 kinases) [%]	% inhibiton at 1 uM FAK (panel of 24 kinases) [%]	% inhibiton at 1 uM FGFR1 (panel of 24 kinases) [%]	% inhibiton at 1 uM IGF1_R (panel of 24 kinases) [%]	% inhibiton at 1 uM IKK BETA (panel of 24 kinases) [%]	% inhibiton at 1 uM INS_R (panel of 24 kinases) [%]	% inhibiton at 1 uM JAK2 (panel of 24 kinases) [%]	% inhibiton at 1 uM KIT (panel of 24 kinases) [%]	% inhibiton at 1 uM MEK1 (panel of 24 kinases) [%]	% inhibiton at 1 uM MET (panel of 24 kinases) [%]	% inhibiton at 1 uM PDGFR Alpha (panel of 24 kinases) [%]	% inhibiton at 1 uM RPS5 KA1 (panel of 24 kinases) [%]	% inhibiton at 1 uM SGK1 (panel of 24 kinases) [%]	% inhibiton at 1 uM AKT2 (panel of 24 kinases) [%]	% inhibiton at 1 uM CDK8 CYCC (panel of 24 kinases) [%]	% inhibiton at 1 uM CHK1 (panel of 24 kinases) [%]	other results
OC1CCC(Nc2ccc3nnn(-c4cccc(OC(F)(F)F)c4)c3n2)CC1 (stereo in doubt) [2-47]	43.6	6	2	3	9	6	0	8	4	7	15	2	0	0	0	0	3				
FC(F)(F)Oc1cccc(-n2nnc3ccc(N4CCCC5(CCCN5)CC4)nc32)c1 (stereo not shown) [2-65]	88.9	3	0	12	12	31	22	21	0	12	8	63	13	11	57	10	0	0	2	7	IC50 (PIM-1; [3]): 0.002 µM; IC50 (PIM-1; semi-quantitative class): < 0.1 µM; IC50 (PIM-2): 0.1 to 1 µM; IC50 (PIM-3; [3]): 0.006 µM; IC50 (PIM-3; semi-quantitative class): < 0.1 µM; IC50 (FLT3; [3]): 0.028 µM; IC50 (FLT3; semi-quantitative class): < 0.1 µM; % inhibiton at 1 uM PAK1 (panel of 24 kinases): 0%; % inhibiton at 1 uM PDK1 (panel of 24 kinases): 0%; % inhibiton at 1 uM SRC (panel of 24 kinases): 33%
FC(F)(F)Oc1cccc(-n2nnc3ccc(NC4CC5(CCNCC5)C4)nc32)c1 [2-66]	91.1	15	0	30	18	19	4	16	5	7	3	30	0	3	12	19	2	0	3	13	% inhibiton at 1 uM PAK1 (panel of 24 kinases): 11%; % inhibiton at 1 uM PDK1 (panel of 24 kinases): 4%; % inhibiton at 1 uM SRC (panel of 24 kinases): 28%
FC(F)(F)Oc1cccc(-n2nnc3ccc(NCC4CC5(CCNCC5)C4)nc32)c1 [2-67]	92.15	11	0	18	13	27	0	25	0	5	0	58	0	2	49	11	7	0	0	11	% inhibiton at 1 uM PAK1 (panel of 24 kinases): 3%; % inhibiton at 1 uM PDK1 (panel of 24 kinases): 0%; % inhibiton at 1 uM SRC (panel of 24 kinases): 16%
O[C@H]1CC[C@@H](Nc2nc3c(cc2Cl)nnn3-c2cccc(OC(F)(F)F)c2)CC1 [2-85]																					IC50 (PIM-1; [3]): 0.074 µM; IC50 (PIM-1; semi-quantitative class): < 0.1 µM; IC50 (PIM-2): 0.1 to 1 µM; IC50 (PIM-3; semi-quantitative class): 0.1 to 1 µM; IC50 (FLT3; semi-quantitative class): 0.1 to 1 µM; EC50 [2]: 0.262 µM
COc1cc(NCC2CCNCC2)nc2c1nnn2-c1cccc(N(C)C)c1 [2-87]	86.25	0	5	1	0	6	6	0	0	0	1	10	7	0	0	12	9	4	0	3	EC50 [2]: 0.1 µM; % inhibiton at 1 uM PAK1 (panel of 24 kinases): 10%; % inhibiton at 1 uM PDK1 (panel of 24 kinases): 9%; % inhibiton at 1 uM PLK1 (panel of 24 kinases; PLK1, 1 uM): 2%; % inhibiton at 1 uM SRC (panel of 24 kinases): 0%
